Laboratory results as given in patent US20040209270A1, “Method for identifying macrocyclic polyketides” (priority 2001, published 2004).

Tests used:
[1] = system: biosensor E. coli SM 101 (EBZ512, pEBZ511, pEBZ514); test: Luminescence measurements in the agar-plate diffusion assay with the E. coli biosensor system (luciferase reporter under mph(A) promoter / MphR(A) control); type: cell-based; conditions: assay discs, 28° C., 2 to 4 hours or 15 to 24 hours, FIG. 3
Description: The agar-plate diffusion assay was incubated at 28° C. for 2 to 4 hours or 15 to 24 hours and luminescence was recorded using a Berthold Luminograph LB980 (FIGS. 3, 4 and 5). If luminescence is stimulated, it is detectable within a diffusion zone around the sample placed. If the sample assayed has, at the same time, an anti-bacterial activity against the sensor organism, which is noticeable as a zone of inhibition in the very preferred embodiment of the longer incubation, then the stimulation of luminescence is detectable outside this halo of inhibition in the sub-lethal concentration range.
(§1) Agar-plate diffusion assay and luminescence measurements using the E. coli biosensor system. Illustration of the selectivity of the biological sensor component. The numbers given in the information on the test substances indicate the amounts of substance applied in μg.
as §1, with “Exemplary illustration” for “Illustration”, “stimulation of luminescence” for “selectivity”, “component as a function of time.” for “component.”

[2] = system: microbial biosensor cell (E. coli biosensor system); test: Detection of a macrolide-(erythromycin-) producing organism in situ, agar-plate diffusion assay with the biosensor; type: cell-based; conditions: assay disc or culture-covered agar blocks placed on biosensor suspension in soft agar; FIG. 5
Excerpt: For this purpose, the microbial biosensor cell was used in the agar-plate diffusion assay. Agar blocks were placed on the biosensor suspension embedded in soft agar. These agar blocks were covered either with Saccharopolyspora erythraea DSM 40517 described as erythromycin producer or with Streptomyces viridochromogenes DSM 40721 described as avilamycin producer. Another agar block contained no growth.
Agar-plate diffusion assay and luminescence measurements using the E. coli biosensor system. In situ stimulation of luminescence by an erythromycin-producing Saccharopolyspora erythraea culture. The number given in the information on the reference substance erythromycin indicates the amount of substance applied in μg.

CC[C@H]1OC(=O)[C@H](C)[C@@H](O[C@H]2C[C@@](C)(OC)[C@@H](O)[C@H](C)O2)[C@H](C)[C@@H](O[C@@H]2O[C@H](C)C[C@H](N(C)C)[C@H]2O)[C@](C)(O)C[C@@H](C)C(=O)[C@H](C)[C@@H](O)[C@]1(C)O [erythromycin]
stimulation of luminescence of the biosensor system [1]: indicates | stimulation of luminescence of the biosensor system [2]: stimulation of luminescence was detectable

CO[C@@H]1[C@@H](OC(N)=O)[C@@H](O)[C@H](Oc2ccc3c(O)c(NC(=O)c4ccc(O)c(CC=C(C)C)c4)c(=O)oc3c2C)OC1(C)C [novobiocin]
stimulation of luminescence of the biosensor system [1]: do not cause a stimulation of luminescence

CC[C@H]1OC(=O)[C@H](C)[C@@H](O[C@@H]2O[C@H](C)C[C@H](N(C)C)[C@H]2O)[C@@H](C)C[C@@H](C)C(=O)/C=C/[C@]1(C)O [methymycin]
stimulation of luminescence of the biosensor system [1]: stimulated

CC[C@H]1OC(=O)[C@H](C)C(=O)[C@H](C)[C@@H](O[C@@H]2O[C@H](C)C[C@H](N(C)C)[C@H]2O)[C@@H](C)C[C@@H](C)C(=O)/C=C/[C@]1(C)O [picromycin]
stimulation of luminescence of the biosensor system [1]: indicates

CC[C@H]1OC(=O)[C@H](C)C(=O)[C@H](C)[C@@H](O[C@@H]2O[C@H](C)C[C@H](N(C)C)[C@H]2O)[C@@H](C)C[C@@H](C)C(=O)/C=C/[C@H]1C [narbomycin]
stimulation of luminescence of the biosensor system [1]: indicates

CO[C@H]1C[C@H](O[C@H]2[C@H](C)[C@@H](O[C@@H]3O[C@H](C)C[C@H](N(C)C)[C@H]3O)[C@@H](C)C[C@@]3(CO3)C(=O)[C@H](C)[C@@H](O)[C@@H](C)[C@@H](C)OC(=O)[C@@H]2C)O[C@@H](C)[C@@H]1O [oleandomycin]
stimulation of luminescence of the biosensor system [1]: indicates

CC[C@H]1OC(=O)[C@H](C)[C@@H](O[C@H]2C[C@@](C)(OC)[C@@H](O)[C@H](C)O2)[C@H](C)[C@@H](O[C@@H]2O[C@H](C)C[C@H](N(C)C)[C@H]2O)[C@](C)(OC)C[C@@H](C)C(=O)[C@H](C)[C@@H](O)[C@]1(C)O [clarithromycin]
stimulation of luminescence of the biosensor system [1]: indicates

CC[C@H]1OC(=O)[C@H](C)[C@@H](O[C@H]2C[C@@](C)(OC)[C@@H](O)[C@H](C)O2)[C@H](C)[C@@H](O[C@@H]2O[C@H](C)C[C@H](N(C)C)[C@H]2O)[C@](C)(O)C[C@@H](C)CN(C)[C@H](C)[C@@H](O)[C@]1(C)O [azithromycin]
stimulation of luminescence of the biosensor system [1]: stimulated

CN[C@H](CC(C)C)C(=O)N[C@H]1C(=O)N[C@@H](CC(N)=O)C(=O)N[C@H]2C(=O)N[C@H]3C(=O)N[C@H](C(=O)N[C@H](C(=O)O)c4cc(O)cc(O)c4-c4cc3ccc4O)[C@H](O)c3ccc(c(Cl)c3)Oc3cc2cc(c3O[C@@H]2O[C@H](CO)[C@@H](O)[C@H](O)[C@H]2O[C@H]2C[C@](C)(N)[C@H](O)[C@H](C)O2)Oc2ccc(cc2Cl)[C@H]1O [vancomycin]
stimulation of luminescence of the biosensor system [1]: do not cause a stimulation of luminescence

O=C(N[C@H](CO)[C@H](O)c1ccc([N+](=O)[O-])cc1)C(Cl)Cl [chloramphenicol]
stimulation of luminescence of the biosensor system [1]: do not cause a stimulation of luminescence

C[C@@H]1O[C@@H]1P(=O)(O)O [fosfomycin]
stimulation of luminescence of the biosensor system [1]: do not cause a stimulation of luminescence
